The subject of one data set is Pseudomonas. As to the kind of experiment: Bacterial inactivation, colony forming units. Conditions: 16 μM; 5 J/cm^2 irradiation; starting titer 6.5 logs. It counts as cell-based. The procedure:
The bacteria, a strain of Pseudomonas, was inoculated into LB with a sterile loop and grown overnight in a shaker at 37° C. Based on the approximation that one OD at 610 mn is equivalent to 5×10^8 colony forming units (cfu)/mL, a 1:10 dilution of the culture was measured on a spectrophotometer, (manufactured by Shimatsu). The bacterial culture was added to a solution of 15% fetal bovine serum in DMEM to a final bacteria concentration of approximately 10^6/mL. An aliquot (0.8 mL) was transferred to a 1.5 mL snap-top polyethylene tube. An aliquot (0.004-0.040 mL) of the test compound stock solution prepared in water, ethanol or dimethylsulfoxide at 0.80-8.0 mM was added to the tube. Compounds were tested at a concentration of 16 μM. The tubes were placed in a light device as described in EXAMPLE 1 and irradiated with 1.3 J/cm^2, 1.2 J/cm^2, and finally 2.5 J/cm^2, for a total of 5 J/cm^2. 150 μL were removed for testing after each pulse period. Sterile 13 mL dilution tubes were prepared; each test compound required one tube with 0.4 mL of LB broth and four tubes containing 0.5 mL of LB broth. […] The colony forming units were then counted the following morning and the titer of the phage remaining after phototreatment was calculated based on the dilution factors. […]

Data set [1] can be described thus: Batch adsorption of 3H-S-59 and photoproducts from illuminated PC, residual radioactivity (Table F). It counts as physicochemical. How it is done:
The removal of residual S-59 and S-59 photoproducts from illuminated PC by batch adsorption was investigated. […] Two separate platelet units were treated for each adsorbent; one unit was agitated for 3 hours before the platelets were separated from the adsorbent and transferred to another bag, and the other platelet unit was left in contact with the adsorbent for 4 days. Samples were removed from the units before treatment, after 3 hours of contact with the adsorbent, and on day 4.

A short description of data set [2]: Batch adsorption of S-59 and photoproducts from illuminated PC, HPLC (Examples 27, 28). It counts as physicochemical. How it is done: The peak corresponding to S-59 is present in the chromatograms representing non-illuminated S-59 (top) and illuminated S-59 (middle) at a retention time of approximately 12 minutes. The other peaks in the chromatogram representing illuminated S-59 (middle) (besides the injection peak at about 3 minutes) correspond to S-59 photoproducts formed during illumination. Note that the peaks appear at time (t)=18 minutes and t=20 minutes are plasma species and are not related to S-59. The peaks which remain in the bottom panel are not S-59 photoproducts, so removal of S-59 and photoproducts was essentially complete in this case as indicated by HPLC (i.e., non-detectable by HPLC).

Turning to `Cc1oc2c(C)c3oc(=O)cc(C)c3cc2c1CN` [AMT, 4′-Aminomethyl-4,5′,8-trimethylpsoralen, reference compound], the “log kill of Pseudomonas” value in the data set on Pseudomonas came to 5.2 logs.

As to `Cc1oc2c(C)c3oc(=O)cc(C)c3cc2c1COCCN` [Compound 2, 4′-(4-amino-2-oxa)butyl-4,5′,8-trimethylpsoralen], in data set [1] (3H-S-59, illuminated PC), the “counts as 3H exchanged water” value is “about 10%”, the “counts associated with plasma macromolecules” value was “about 18%” and the “counts associated with platelet macromolecules” value is reported as “about 15%”. Moreover, the non-adsorbed radioactivity in data set [1] (3H-S-59, illuminated PC treated with adsorbent for 4 days) is 36-37%. Also, the “removal of S-59” value in data set [2] (at 2 hours, Amberlite XAD-4 10 g/300 mL, illuminated platelets in 35% plasma/[…]% PAS III, HPLC) is recorded as “greater than 99%”. For the same compound, the “S-59 and low molecular weight photoproducts adsorbed from PCs” value in data set [2] (batch devices, appropriate adsorbents) was “greater than 99%”.

(Values after US6544727B1, “Methods and devices for the removal of psoralens from blood products” (Cerus Corporation, priority 1995, dated 2003).)
